Five molecules from PubChem BioAssay (NCI) can be followed below.

Molecules are shown by their SMILES.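 A five-concentration, 48-hour dose response in 96-well plates underlies each endpoint, interpolated linearly between surrounding concentrations. Abbreviation: GI50, concentration required for 50% inhibition of growth. TGI marks complete inhibition of growth.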 Some results are limits rather than exact numbers.

In the first assay the test system is UO-31 renal. Kind of assay: NCI tumour cell line growth inhibition, 48 h.
As for `COc1cccc2c1C(=N)c1c(O)c3c(c(O)c1C2=O)C[C@@](O)(C(C)=O)C[C@@H]3O[C@H]1C[C@H](N)[C@H](O)[C@H](C)O1`, the GI50 is 2.24 µM and the TGI was 19.9 µM.
On the same counts, the results for `Cc1cn(-c2cc(NC(=O)c3cccc(C#Cc4cccc5[nH]nc(N)c45)c3)cc(C(F)(F)F)c2)cn1` are 2.79 µM and 26.5 µM.
In turn, `CN(C)CCC(=O)N1C/C(=C\c2ccc(Cl)c(Cl)c2)C(=O)/C(=C/c2ccc(Cl)c(Cl)c2)C1` came in with a TGI of 0.862 µM.
On to `CN(C)Cc1cc(C(F)(F)F)ccc1C(O)(c1ccccc1)c1ccccc1`, for which the TGI is 28.5 µM.
On the same count and under the same terms, the result for `O=C(NC(=O)c1c(F)cccc1F)Nc1cccc(Oc2ncc(Cl)cn2)c1` reads > 100 µM.

Another assay has as its system A498 renal. Kind of assay: NCI tumour cell line growth inhibition, 48 h.
As for `COc1cccc2c1C(=N)c1c(O)c3c(c(O)c1C2=O)C[C@@](O)(C(C)=O)C[C@@H]3O[C@H]1C[C@H](N)[C@H](O)[C@H](C)O1`, the GI50 is 1.5 µM and the TGI came to 5.86 µM.
Take `Cc1cn(-c2cc(NC(=O)c3cccc(C#Cc4cccc5[nH]nc(N)c45)c3)cc(C(F)(F)F)c2)cn1`: the GI50 was 4.09 µM and the TGI stood at 82.4 µM.
`CN(C)CCC(=O)N1C/C(=C\c2ccc(Cl)c(Cl)c2)C(=O)/C(=C/c2ccc(Cl)c(Cl)c2)C1` gave a TGI of 4.6 µM.
Still for that read-out and setting: the result for `CN(C)Cc1cc(C(F)(F)F)ccc1C(O)(c1ccccc1)c1ccccc1` reads 24.7 µM.
On the same count and under the same terms, to `O=C(NC(=O)c1c(F)cccc1F)Nc1cccc(Oc2ncc(Cl)cn2)c1` belongs > 100 µM.

The test system of a further assay is UACC-62 melanoma. Kind of assay: NCI tumour cell line growth inhibition, 48 h.
In the case of `COc1cccc2c1C(=N)c1c(O)c3c(c(O)c1C2=O)C[C@@](O)(C(C)=O)C[C@@H]3O[C@H]1C[C@H](N)[C@H](O)[C@H](C)O1`, the GI50 was 0.248 µM and the TGI worked out at 1.79 µM.
The corresponding values for `Cc1cn(-c2cc(NC(=O)c3cccc(C#Cc4cccc5[nH]nc(N)c45)c3)cc(C(F)(F)F)c2)cn1` are 2.54 µM and 12.7 µM.
Molecule `CN(C)CCC(=O)N1C/C(=C\c2ccc(Cl)c(Cl)c2)C(=O)/C(=C/c2ccc(Cl)c(Cl)c2)C1` registered a TGI of 1.72 µM.
The same measure, in the same setting: to `CN(C)Cc1cc(C(F)(F)F)ccc1C(O)(c1ccccc1)c1ccccc1` belongs 26 µM; to `O=C(NC(=O)c1c(F)cccc1F)Nc1cccc(Oc2ncc(Cl)cn2)c1`, > 100 µM.

The subject of another assay is SF-539 CNS. As to the kind of experiment: NCI tumour cell line growth inhibition, 48 h.
For the molecule `COc1cccc2c1C(=N)c1c(O)c3c(c(O)c1C2=O)C[C@@](O)(C(C)=O)C[C@@H]3O[C@H]1C[C@H](N)[C@H](O)[C@H](C)O1`, the GI50 is 0.174 µM and the TGI worked out at 1.48 µM.
On the same counts, the results for `Cc1cn(-c2cc(NC(=O)c3cccc(C#Cc4cccc5[nH]nc(N)c45)c3)cc(C(F)(F)F)c2)cn1` are 1.3 µM and 14.3 µM.
Molecule `CN(C)CCC(=O)N1C/C(=C\c2ccc(Cl)c(Cl)c2)C(=O)/C(=C/c2ccc(Cl)c(Cl)c2)C1` returned a TGI of 0.832 µM.
Turning to `CN(C)Cc1cc(C(F)(F)F)ccc1C(O)(c1ccccc1)c1ccccc1`, the TGI was determined as 32.7 µM.
The same measure, in the same setting: to `O=C(NC(=O)c1c(F)cccc1F)Nc1cccc(Oc2ncc(Cl)cn2)c1` belongs > 100 µM.

For another assay, the system named is RPMI-8226 leukemia. Kind of assay: NCI tumour cell line growth inhibition, 48 h.
Consider `COc1cccc2c1C(=N)c1c(O)c3c(c(O)c1C2=O)C[C@@](O)(C(C)=O)C[C@@H]3O[C@H]1C[C@H](N)[C@H](O)[C@H](C)O1`, for which the GI50 was 0.255 µM and the TGI turned out to be 4.03 µM.
As for `Cc1cn(-c2cc(NC(=O)c3cccc(C#Cc4cccc5[nH]nc(N)c45)c3)cc(C(F)(F)F)c2)cn1`, the GI50 was 4.54 µM and the TGI was > 100 µM.
As to `CN(C)CCC(=O)N1C/C(=C\c2ccc(Cl)c(Cl)c2)C(=O)/C(=C/c2ccc(Cl)c(Cl)c2)C1`, the TGI was found to be 0.485 µM.
In turn, `CN(C)Cc1cc(C(F)(F)F)ccc1C(O)(c1ccccc1)c1ccccc1` yielded a TGI of 21.5 µM.
On the same count and under the same terms, to `O=C(NC(=O)c1c(F)cccc1F)Nc1cccc(Oc2ncc(Cl)cn2)c1` belongs > 100 µM.

In a further assay the test system is HOP-62 NSCLC. Kind of assay: NCI tumour cell line growth inhibition, 48 h.
In the case of `COc1cccc2c1C(=N)c1c(O)c3c(c(O)c1C2=O)C[C@@](O)(C(C)=O)C[C@@H]3O[C@H]1C[C@H](N)[C@H](O)[C@H](C)O1`, the GI50 is 0.152 µM and the TGI was 1.37 µM.
On the same counts, the results for `Cc1cn(-c2cc(NC(=O)c3cccc(C#Cc4cccc5[nH]nc(N)c45)c3)cc(C(F)(F)F)c2)cn1` are 3.99 µM and 18.3 µM.
As for `CN(C)CCC(=O)N1C/C(=C\c2ccc(Cl)c(Cl)c2)C(=O)/C(=C/c2ccc(Cl)c(Cl)c2)C1`, the TGI was determined as 0.941 µM.
With `CN(C)Cc1cc(C(F)(F)F)ccc1C(O)(c1ccccc1)c1ccccc1`, the TGI is 33.7 µM.
Molecule `O=C(NC(=O)c1c(F)cccc1F)Nc1cccc(Oc2ncc(Cl)cn2)c1` showed a TGI of 73.6 µM.

Another assay relates to SW-620 colon. Kind of assay: NCI tumour cell line growth inhibition, 48 h.
`COc1cccc2c1C(=N)c1c(O)c3c(c(O)c1C2=O)C[C@@](O)(C(C)=O)C[C@@H]3O[C@H]1C[C@H](N)[C@H](O)[C@H](C)O1` had a TGI of 3.65 µM.
As for `Cc1cn(-c2cc(NC(=O)c3cccc(C#Cc4cccc5[nH]nc(N)c45)c3)cc(C(F)(F)F)c2)cn1`, the GI50 was 4.22 µM and the TGI is > 100 µM.
Consider `CN(C)CCC(=O)N1C/C(=C\c2ccc(Cl)c(Cl)c2)C(=O)/C(=C/c2ccc(Cl)c(Cl)c2)C1`, for which the TGI came to 0.349 µM.
Regarding `CN(C)Cc1cc(C(F)(F)F)ccc1C(O)(c1ccccc1)c1ccccc1`, the TGI was 41 µM.
`O=C(NC(=O)c1c(F)cccc1F)Nc1cccc(Oc2ncc(Cl)cn2)c1`: the TGI was > 100 µM.

A further assay deals with IGROV1 ovarian. Kind of assay: NCI tumour cell line growth inhibition, 48 h.
Consider `COc1cccc2c1C(=N)c1c(O)c3c(c(O)c1C2=O)C[C@@](O)(C(C)=O)C[C@@H]3O[C@H]1C[C@H](N)[C@H](O)[C@H](C)O1`, for which the GI50 was 0.645 µM and the TGI worked out at 6.25 µM.
In the case of `Cc1cn(-c2cc(NC(=O)c3cccc(C#Cc4cccc5[nH]nc(N)c45)c3)cc(C(F)(F)F)c2)cn1`, the GI50 was 5.29 µM and the TGI worked out at 83.2 µM.
As for `CN(C)CCC(=O)N1C/C(=C\c2ccc(Cl)c(Cl)c2)C(=O)/C(=C/c2ccc(Cl)c(Cl)c2)C1`, the TGI came out at 0.648 µM.
On the same count and under the same terms, the result for `CN(C)Cc1cc(C(F)(F)F)ccc1C(O)(c1ccccc1)c1ccccc1` reads 30.9 µM.
`O=C(NC(=O)c1c(F)cccc1F)Nc1cccc(Oc2ncc(Cl)cn2)c1`: the TGI was > 100 µM.

A further assay deals with CCRF-CEM leukemia. As to the kind of experiment: NCI tumour cell line growth inhibition, 48 h.
On to `COc1cccc2c1C(=N)c1c(O)c3c(c(O)c1C2=O)C[C@@](O)(C(C)=O)C[C@@H]3O[C@H]1C[C@H](N)[C@H](O)[C@H](C)O1`, for which the GI50 is 0.0829 µM and the TGI is 3.76 µM.
The corresponding values for `Cc1cn(-c2cc(NC(=O)c3cccc(C#Cc4cccc5[nH]nc(N)c45)c3)cc(C(F)(F)F)c2)cn1` are 4.88 µM and > 100 µM.
`CN(C)CCC(=O)N1C/C(=C\c2ccc(Cl)c(Cl)c2)C(=O)/C(=C/c2ccc(Cl)c(Cl)c2)C1`: the TGI came to 0.738 µM.
As for `CN(C)Cc1cc(C(F)(F)F)ccc1C(O)(c1ccccc1)c1ccccc1`, the TGI stood at 28.9 µM.
With `O=C(NC(=O)c1c(F)cccc1F)Nc1cccc(Oc2ncc(Cl)cn2)c1`, the TGI was > 100 µM.

For another assay, the system named is MDA-MB-435. As to the kind of experiment: NCI tumour cell line growth inhibition, 48 h.
For `COc1cccc2c1C(=N)c1c(O)c3c(c(O)c1C2=O)C[C@@](O)(C(C)=O)C[C@@H]3O[C@H]1C[C@H](N)[C@H](O)[C@H](C)O1`, the GI50 was 1.66 µM and the TGI turned out to be 8.91 µM.
Turning to `Cc1cn(-c2cc(NC(=O)c3cccc(C#Cc4cccc5[nH]nc(N)c45)c3)cc(C(F)(F)F)c2)cn1`, the GI50 is 3.74 µM and the TGI is 37 µM.
As to `CN(C)CCC(=O)N1C/C(=C\c2ccc(Cl)c(Cl)c2)C(=O)/C(=C/c2ccc(Cl)c(Cl)c2)C1`, the TGI came to 1.6 µM.
The same measure, in the same setting: the result for `CN(C)Cc1cc(C(F)(F)F)ccc1C(O)(c1ccccc1)c1ccccc1` reads 58 µM; that for `O=C(NC(=O)c1c(F)cccc1F)Nc1cccc(Oc2ncc(Cl)cn2)c1`, > 22.8 µM.
